Test results taken from patent US12509734B2, “Systems and methods to assess microbiomes and treatments thereof” (priority 2013, dated 2025).

System: vaginal microbiota
Assay: 16S-C&S (broad-spectrum clone and sequence) with and without LB-blocking of acute BV and post-tinidazole lavages (Tables 3C, 3D)
Assay type: in vivo, human
Source text: Amplicon cloning. Amplicon cloning. Broad-spectrum PCR targets were amplified for varying cycle numbers, typically Cp plus 1 or 2 cycles to achieve a “just visible” product on an agarose ethidium-bromide gel. Amplicons derived from PB primers were sequenced directly with the rationale that any species present at 5-10× others amplified by the same PB primer would generate a single, readable sequence; amplicons from PB primers that were unreadable as uncloned amplicons were cloned after nested PCR. They were amplified to maximum fluorescence or maximum cycles for that primer. Products were cleaned by ultrafiltration with the MONTAGE™ PCR kit UFC7PCR50 (Millipore) or QIAQUICK® PCR purification kit (QIAGEN®). One to three microliters of the 20 μl purified product was ligated into pGEM-T Easy vector using the PGEM-T™ Easy Ligation Kit (Promega) according to the manufacturer's specifications. The ligation reaction was carried out for from 4 hours to overnight at 4° C. Forty microliters of E. coli cells (strain XL1-BLUE®, Stratagene) were electroporated using a BioRad GenePulser and Pulse Controller (set at 2.5 kV, 25 μFD capacitance, and 200 ohms resistance) with 1 μl of the ligation, allowed to recover in LB broth 1 h at 37° C., then plated onto LB agar plus 100 μg/ml ampicillin with 0.1 mM IPTG and 20 μg/ml X-gal and grown overnight at 37° C. White colonies and a few blue control colonies were picked from the plates into 100 μl of 15% glycerol or TE, incubated at 94° C. for 5 m; 2 μl of this was amplified in 8 μl of reaction buffer as described, using primers that flank the cloning site in the vector (pUC-F […] (SEQ ID NO: 88), pUC-R […] (SEQ ID NO: 89); 95° C. (1 m), [95° C. (30 s), 45° C. (30 s), 72° C. (30 s)] for 40 cycles, 72° C. (5 m). Extension times for cloned amplicons from PB primers were adjusted as appropriate for each amplicon size according to Tables 3A-3D. An aliquot of each amplicon was tested by agarose gel electrophoresis.
Sequencing and analysis. Full length amplicons (5 μl) were enzymatically cleaned using a 5 μl solution of 0.1 units of NTPhos thermolabile phosphatase and 1 unit of Exonuclease I (Epicentre Biotechnologies), in 20 mM Tris pH 8.3, 50 mM KCl and 10 mM MgCl2 (1×PCR reaction buffer, Invitrogen), incubated at 37° C. for 15 m, then inactivated at 80° C. for 15 m, and used for sequencing. Mini-libraries were constructed from amplicons with co-dominant species (which generate mixed template reads when uncloned); 17 mini-libraries each averaging 11 sequences were sequenced. Enzymatically cleaned amplicons were sequenced with the same primers used for amplification, or T7 for cloned amplicons (Functional Biosciences, Inc.). Sequences were uploaded to Ribosomal Database Project II using the Pipeline function in MyRDP for trimming, quality scoring, alignment, and identification. Only base calls with PHRED quality scores (Q) above 20 were considered. A small number of high quality sequences were rejected by the website as non-ribosomal and were not considered further in this analysis. Aligned sequences, their closest hits via SeqMatch, and manually selected reference species, were downloaded from myRDP, manually trimmed to common 5′ and 3′ ends, and analyzed with Molecular Evolutionary Genetics Analysis (MEGA4 and MEGA5) software. From this, trees were constructed using the bootstrapped Neighbor-Joining method or the Maximum Composite Likelihood method, and used for species identification.
Compositions determined by 16S-C&S were simply tallies of sequences in each taxa, defined here as those with >97% identity. These tallies were adjusted in libraries from LB-blocked PCR with a correction factor. To determine this factor, the titers of Gardnerella and LB were independently determined with and without blocking by PB-qPCR. Their ratio in the unblocked sample (7×10^−6) was increased in the blocked sample to 0.09, indicating an enrichment of 0.09/7×10^−6=12,600. […]

[1] = post tinidazole lavage, 16S-C&S, Lactobacillaceae clones
[2] = post tinidazole lavage, 16S-C&S, target Bacteroidaceae/uc Prevotellaceae

Structure (SMILES): CCS(=O)(=O)CCn1c([N+](=O)[O-])cnc1C [tinidazole]
- non-LB share of isolates in post-tinidazole sample (FIG. 3, B2, LB-blocked): 0.003%
- ID Clones: L. iners [1]: L. iners 83%, L.
- ID Clones: L. jensenii [1]: jensenii 17%,
- Cells/sample (post tinidazole lavage, 16S-C&S, target Actinobacteria: Actinobacteridae): 1.3E+06 Cells/sample
- Cells/sample (post tinidazole lavage, 16S-C&S, target Alpha-Proteobacteria): 3.4E+04 Cells/sample
- Cells/sample [2]: 3.4E+04 Cells/sample
- ID Clones [2]: Bacteroides sp.
- Cells/sample (post tinidazole lavage, 16S-C&S, target Beta-Proteobacteria): 3.4E+04 Cells/sample
- Cells/sample (post tinidazole lavage, 16S-C&S, target Broad-spectrum): 8.4E+09 Cells/sample
- Cells/sample (post tinidazole lavage, 16S-C&S, target Clostridiales Incertae Sedis XI): 0 Cells/sample
- Cells/sample (post tinidazole lavage, 16S-C&S, target Clostridiales Incertae Sedis XII): 0 Cells/sample
- Cells/sample (post tinidazole lavage, 16S-C&S, target Coriobacteridae): 0 Cells/sample
- Cells/sample (post tinidazole lavage, 16S-C&S, target Cross-family Clostridia): 0 Cells/sample
- Cells/sample (post tinidazole lavage, 16S-C&S, target Enterobacteriales, Pasteurellales, Pseudomonadaceae): 3.4E+05 Cells/sample
- Cells/sample (post tinidazole lavage, 16S-C&S, target Epsilon-Proteobacteria): 3.4E+04 Cells/sample
- Cells/sample (post tinidazole lavage, 16S-C&S, target Firmicute: Lactobacillaceae): 8.4E+09 Cells/sample
- Cells/sample (post tinidazole lavage, 16S-C&S, target Fusobacterium): 0 Cells/sample
- Cells/sample (post tinidazole lavage, 16S-C&S, target Lachnospiracea uc & incertae sedis Clostridium IVa): 0 Cells/sample
- Cells/sample (post tinidazole lavage, 16S-C&S, target Megasphaera/Dialister/Veillonella): 0 Cells/sample
- Cells/sample (post tinidazole lavage, 16S-C&S, target Mobiluncus): 0 Cells/sample
- Cells/sample (post tinidazole lavage, 16S-C&S, target Mycoplasmatales): 0 Cells/sample
- Cells/sample (post tinidazole lavage, 16S-C&S, target Peptostreptococcaceae): 0 Cells/sample
- Cells/sample (post tinidazole lavage, 16S-C&S, target Staphylococcus): 0 Cells/sample
- Cells/sample (post tinidazole lavage, 16S-C&S, target Streptococcus): 0 Cells/sample
- Cells/sample (post tinidazole lavage, 16S-C&S, target uc Clostridiales (BVAB283 subset)): 0 Cells/sample
